Here are results for two molecules from patent EP0604653A1, “COMPLEX OF COMPOUND HAVING CHALCONE SKELETON” (TAISHO PHARMACEUTICAL CO. LTD, priority 1991, dated 1993).

The test system of data set [1] is PGE₂ Content in Rat Gastric Mucosa. Put plainly: PGE₂ content in gastric mucosa after dosing (radioimmunoassay). Format: in vivo. The conditions noted are these: rats, i.d., dose of SU-740 31.4 mg/kg (Complex 200.0 mg/kg). Here is the method: The test was carried out in accordance with the method described in M. Muramatsu et al., Life Science, Vol. 41, p. 315 (1987). The sample dispersed in a 1 % gum arabic suspension was intraduodenally administered to rats having been deprived of food for 24 hours so as to make a dose of SU -740 become 31.4 mg/kg. After 24 hours from the administration, the gastric mucosa was excised under anesthesia with ether and 2 mℓ of a 20 µM anhydrous solution of Indomethacin was added thereto, followed by homogenization. After allowing to stand for 1 hour, the homogenate was subjected to centrifugation at 3000 rpm for 10 minutes and the supernatant liquor (PG mixture) was lyophilized. The resulting PG mixture was suspended in distilled water, and extracted with methanol by means of a column (vac elute). Then the extract was lyophilized, and subjected to measurement by means of a radioimmunoassay kit.

A further data set relates to Gastric Acid Secretion. As to the kind of experiment: Gastric acid secretion in conscious dog with chronic fistula, stimulated by 2-deoxy-D-glucose. In kind it is in vivo. The conditions noted are these: p.o., table doses: SU-740 200.0 mg/kg, Complex 200.0 (31.4 as SU-740) mg/kg. Here is the method:
The test was carried out in accordance with the method described in Gastroenterology, Vol. 85, p. 900 (1983). A dog to which a fistula had been chronically fitted was deprived of food for 20 hours. […] One hour later, 300 mg/kg of 2-deoxy-D-glucose was intravenously injected. Two hours from the injection, the gastric acid secretion was measured.

Data set [2] in a line: Test of absorbability after oral capsule administration (cross-over, Latin square). Particulars: beagles, dose of SU-740 100 mg/kg, FIG. 5. In kind it is in vivo. Here is the method: The test was conducted by a cross-over testing method according to a Latin square method using 15 beagles divided into three groups each consisting of 5 test animals. Each sample was put in a capsule and orally given to the animal so as to make a dose of SU-740 become 100 mg/kg.

Data set [3] concerns Prostaglandin (PG) Metabolic Enzyme. Put plainly: PG metabolic enzyme activity in excised gastric mucosa after dosing (decomposition of PGE₁ as index). In kind it is in vivo. The conditions noted are these: rats, i.d., dose of SU-740 31.4 mg/kg (Complex 200.0 mg/kg). Here is the method:
The test was carried out in accordance with the method described in M. Muramatsu et al., Biochemical Pharmacology, Vol. 33(16), p. 2629 (1984). The sample dispersed in a 1 % gum arabic suspension was intraduodenally administered to rats having been deprived of food for 24 hours so as to make a dose of SU-740 become 31.4 mg/kg. Two hours later, the gastric mucosa was excised, and a PG metabolic enzyme was extracted therefrom and analyzed with a spectrophotometer. The effect was examined taking decomposition of PGE₁ as an index.

Data set [4] deals with Histamine-Induced Ulceration. As to the kind of experiment: Histamine-induced ulceration, area of lesions. In kind it is in vivo. The conditions noted are these: rats, i.d., dose of SU-740 31.4 mg/kg (Complex 200.0 mg/kg); histamine 300 mg/kg i.p. 3 hours later, lesion area 4 hours thereafter. The procedure: The test was carried out in accordance with the method described in M. Muramatsu et al., Arzeneim. Forsch., Vol. 40(I)1, p. 49 (1990). The sample dispersed in a 1 % gum arabic suspension was intraduodenally administrated to rats having been deprived of food for 24 hours so as to make a dose of SU-740 become 31.4 mg/kg. Three hours later, 300 mg/kg of histamine was intraperitoneally administered, and 4 hours thereafter the abdomen was opened, and the area of lesions was measured to evaluate the inhibitory effect on mucosal lesions.

Data set [5] has as its system Hydrochloric Acid-Induced Lesion. Put plainly: Hydrochloric acid-induced gastric mucosal lesion, length of ulcerations. Format: in vivo, rat. Particulars: rats, intraduodenal, dose of SU-740 10, 35 or 60 mg/kg, 0.6 N hydrochloric acid 1 hour later; FIG. 6. Here is the method:
Seventy-two rats divided into 9 groups each consisting of 8 animals were used. A 0.2 mℓ/100 g of the sample dispersed in a 5 % gum arabic suspension was intraduodenally administered to a rat so as to make a dose of SU-740 become 10 mg, 35 mg or 60 mg per kg-body weight. β-Cyclodextrin was similarly administered at a dose corresponding to the SU-740 content in the complex obtained in Example 2. On hour later, 1 mℓ of 0.6 N hydrochloric acid was administered, and 1 hour thereafter the abdomen was opened, and the length of the ulcerations was measured to evaluate the inhibitory effect on mucosal lesions.

Structures are written as SMILES.

For `CC(C)=CCOc1ccc(C(=O)/C=C/c2ccc(C(C)(C)C)cc2)c(OCC(=O)O)c1` [SU-740, 4-t-butyl-2'-carboxymethoxy-4'-(3-methyl-2-butenyloxy)chalcone], the activity at 31.4 mg/kg in data set [1] (Rattus norvegicus, intraduodenal, PGE₂ content, read-out: % of Control) was 396%. Moreover, the “PGE₂ Content (pg/g wet weight)” value in data set [1] (gastric mucosa 24 hours after administration) turned out to be 309.1±57.0 pg/g wet weight. The “Inhibitory Ratio (%)” value stood at 20.9% in the data set with Gastric Acid Secretion (gastric acid secretion) and 66.7% in data set [4]. In addition, in the data set with Gastric Acid Secretion (2-deoxy-D-glucose 300 mg/kg i.v. one hour later), the “Gastric Acid Secretion (mEq/1 hr)” value amounted to 12.1±2.1 mEq/1 hr. In data set [2], the absorbability result is “scarcely absorbed”. The “% of Control” value in data set [3] (PG metabolic enzyme activity) came out at 81.3%. In addition, the “PG Metabolic Enzyme Activity (nmol/mg protein/min)” value in data set [3] (gastric mucosa excised two hours later) was found to be 0.61±0.05 nmol/mg protein/min.

On to `OC[C@H]1O[C@@H]2O[C@H]3[C@H](O)[C@@H](O)[C@@H](O[C@H]4[C@H](O)[C@@H](O)[C@@H](O[C@H]5[C@H](O)[C@@H](O)[C@@H](O[C@H]6[C@H](O)[C@@H](O)[C@@H](O[C@H]7[C@H](O)[C@@H](O)[C@@H](O[C@H]8[C@H](O)[C@@H](O)[C@@H](O[C@H]1[C@H](O)[C@H]2O)O[C@@H]8CO)O[C@@H]7CO)O[C@@H]6CO)O[C@@H]5CO)O[C@@H]4CO)O[C@@H]3CO` [β-Cyclodextrin, β-cyclodextrin], for which the “inhibitory effect on mucosal lesions” value in data set [5] is listed as “little effect”.
